Results from PubChem BioAssay (NCI).
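Briefly, cells in 96-well plates were exposed to five compound concentrations for 48 h, and endpoints were estimated by linear interpolation. At the GI50, growth is halved. Definition used: TGI = concentration required for complete inhibition of growth.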

Tests used:
Test in all cases: DTP human tumour cell line panel, 48 h
OVCAR-4 ovarian = test system: OVCAR-4 ovarian
T-47D breast = test system: T-47D breast
UACC-62 melanoma = test system: UACC-62 melanoma
NCI/ADR-RES ovarian = test system: NCI/ADR-RES ovarian
SR leukemia = test system: SR leukemia
A549 NSCLC = test system: A549 NSCLC
786-0 renal = test system: 786-0 renal
M14 melanoma = test system: M14 melanoma
RPMI-8226 leukemia = test system: RPMI-8226 leukemia
NCI-H522 lung = test system: NCI-H522 lung
NCI-H23 lung = test system: NCI-H23 lung
EKVX NSCLC = test system: EKVX NSCLC
KM12 colon = test system: KM12 colon
OVCAR-8 ovarian = test system: OVCAR-8 ovarian
MALME-3M melanoma = test system: MALME-3M melanoma
ACHN renal = test system: ACHN renal
HCT-116 colon = test system: HCT-116 colon
MDA-MB-435 = test system: MDA-MB-435
PC-3 prostate = test system: PC-3 prostate
CAKI-1 renal = test system: CAKI-1 renal
OVCAR-5 ovarian = test system: OVCAR-5 ovarian
DU-145 prostate = test system: DU-145 prostate
UO-31 renal = test system: UO-31 renal
BT-549 breast = test system: BT-549 breast
SK-MEL-2 melanoma = test system: SK-MEL-2 melanoma
LOX IMVI melanoma = test system: LOX IMVI melanoma
SN12C renal = test system: SN12C renal
MOLT-4 leukemia = test system: MOLT-4 leukemia
SNB-19 CNS = test system: SNB-19 CNS
HL-60(TB) leukemia = test system: HL-60(TB) leukemia
SK-MEL-28 melanoma = test system: SK-MEL-28 melanoma
HT29 colon = test system: HT29 colon
COLO 205 colon = test system: COLO 205 colon
NCI-H226 lung = test system: NCI-H226 lung
MCF7 breast = test system: MCF7 breast
SNB-75 CNS = test system: SNB-75 CNS
SW-620 colon = test system: SW-620 colon
HS 578T breast = test system: HS 578T breast
HOP-62 NSCLC = test system: HOP-62 NSCLC
HOP-92 NSCLC = test system: HOP-92 NSCLC
SK-MEL-5 melanoma = test system: SK-MEL-5 melanoma
CCRF-CEM leukemia = test system: CCRF-CEM leukemia
SF-539 CNS = test system: SF-539 CNS
K-562 leukemia = test system: K-562 leukemia
RXF 393 renal = test system: RXF 393 renal
IGROV1 ovarian = test system: IGROV1 ovarian
HCT-15 colon = test system: HCT-15 colon
SF-268 CNS = test system: SF-268 CNS
OVCAR-3 ovarian = test system: OVCAR-3 ovarian
SF-295 CNS = test system: SF-295 CNS
NCI-H460 lung = test system: NCI-H460 lung
A498 renal = test system: A498 renal
UACC-257 melanoma = test system: UACC-257 melanoma
SK-OV-3 ovarian = test system: SK-OV-3 ovarian
U251 CNS = test system: U251 CNS
HCC-2998 colon = test system: HCC-2998 colon
TK-10 renal = test system: TK-10 renal
MDA-MB-231 breast = test system: MDA-MB-231 breast

## COc1cc(S(=O)(=O)Nc2ccc(-c3csc(/N=C\c4cccc(Oc5ccccc5)c4)n3)cc2)ccc1Cl
OVCAR-4 ovarian
  TGI: > 100 µM
T-47D breast
  TGI: 34.4 µM
UACC-62 melanoma
  TGI: 25.1 µM
NCI/ADR-RES ovarian
  TGI: > 100 µM
SR leukemia
  TGI: 81.9 µM
A549 NSCLC
  TGI: > 100 µM
786-0 renal
  TGI: > 100 µM
M14 melanoma
  TGI: > 100 µM
RPMI-8226 leukemia
  TGI: 75.6 µM
NCI-H522 lung
  TGI: 66.6 µM
NCI-H23 lung
  TGI: > 100 µM
EKVX NSCLC
  TGI: 81.4 µM
KM12 colon
  TGI: > 100 µM
OVCAR-8 ovarian
  TGI: 61.9 µM
MALME-3M melanoma
  TGI: > 100 µM
ACHN renal
  TGI: 71.8 µM
HCT-116 colon
  TGI: 92.6 µM
MDA-MB-435
  TGI: > 100 µM
PC-3 prostate
  TGI: > 100 µM
CAKI-1 renal
  TGI: > 100 µM
OVCAR-5 ovarian
  TGI: > 100 µM
DU-145 prostate
  TGI: 61.7 µM
UO-31 renal
  TGI: > 100 µM
BT-549 breast
  TGI: 93.1 µM
SK-MEL-2 melanoma
  TGI: > 100 µM
LOX IMVI melanoma
  TGI: 39 µM
SN12C renal
  TGI: 96.7 µM
MOLT-4 leukemia
  TGI: > 100 µM
SNB-19 CNS
  TGI: > 100 µM
HL-60(TB) leukemia
  TGI: 57.6 µM
SK-MEL-28 melanoma
  TGI: > 100 µM
HT29 colon
  TGI: > 100 µM
COLO 205 colon
  TGI: > 100 µM
NCI-H226 lung
  TGI: > 100 µM
MCF7 breast
  TGI: 21.1 µM
SNB-75 CNS
  TGI: 80.1 µM
SW-620 colon
  TGI: > 100 µM
HS 578T breast
  TGI: > 100 µM
HOP-62 NSCLC
  TGI: > 100 µM
HOP-92 NSCLC
  TGI: 58.6 µM
SK-MEL-5 melanoma
  TGI: > 100 µM
CCRF-CEM leukemia
  TGI: > 100 µM
SF-539 CNS
  TGI: > 100 µM
K-562 leukemia
  TGI: 77 µM
RXF 393 renal
  TGI: 49.4 µM
IGROV1 ovarian
  TGI: 64.2 µM
HCT-15 colon
  TGI: > 100 µM
SF-268 CNS
  TGI: > 100 µM
OVCAR-3 ovarian
  TGI: > 100 µM
SF-295 CNS
  TGI: > 100 µM

## COc1cc(NC(=O)c2cc3ccccc3cc2O)c(OC)cc1Cl
NCI-H460 lung
  GI50: 1.9 µM
  TGI: 4.91 µM
A498 renal
  GI50: 1.96 µM
  TGI: 5.04 µM
OVCAR-4 ovarian
  GI50: 2.12 µM
  TGI: 8.21 µM
T-47D breast
  GI50: 1.8 µM
  TGI: 6.15 µM
UACC-62 melanoma
  GI50: 1.35 µM
  TGI: 5.65 µM
NCI/ADR-RES ovarian
  GI50: 1.99 µM
  TGI: 6.03 µM
SR leukemia
  GI50: 2.02 µM
  TGI: 14.7 µM
A549 NSCLC
  GI50: 2.46 µM
  TGI: 7.47 µM
786-0 renal
  GI50: 2.86 µM
  TGI: 9.18 µM
M14 melanoma
  GI50: 2.74 µM
  TGI: > 100 µM
RPMI-8226 leukemia
  GI50: 0.153 µM
  TGI: 1.18 µM
NCI-H522 lung
  GI50: 1.89 µM
  TGI: 9.41 µM
UACC-257 melanoma
  GI50: 2.05 µM
  TGI: 5.55 µM
NCI-H23 lung
  GI50: 1.59 µM
  TGI: 7.05 µM
EKVX NSCLC
  GI50: 1.29 µM
  TGI: 5.01 µM
KM12 colon
  GI50: 2.52 µM
  TGI: 7.25 µM
OVCAR-8 ovarian
  GI50: 2.84 µM
  TGI: > 32.8 µM
SK-OV-3 ovarian
  GI50: 1.39 µM
  TGI: 3.94 µM
MALME-3M melanoma
  GI50: 0.335 µM
  TGI: 2.87 µM
U251 CNS
  GI50: 1.87 µM
  TGI: 5.23 µM
ACHN renal
  GI50: 1.81 µM
  TGI: 5.23 µM
HCT-116 colon
  GI50: 2.48 µM
  TGI: 11.1 µM
PC-3 prostate
  GI50: 1.56 µM
  TGI: 4.46 µM
CAKI-1 renal
  TGI: 3.76 µM
OVCAR-5 ovarian
  GI50: 2.25 µM
  TGI: 10.6 µM
DU-145 prostate
  GI50: 2.67 µM
  TGI: 8.07 µM
UO-31 renal
  GI50: 1.16 µM
  TGI: > 24.9 µM
BT-549 breast
  GI50: 1.65 µM
  TGI: 5.05 µM
SK-MEL-2 melanoma
  GI50: 2.74 µM
  TGI: 6.95 µM
LOX IMVI melanoma
  GI50: 2.47 µM
  TGI: > 100 µM
SN12C renal
  GI50: 1.87 µM
  TGI: 6.36 µM
MOLT-4 leukemia
  GI50: 2.27 µM
SNB-19 CNS
  GI50: 2.53 µM
  TGI: 8.21 µM
HCC-2998 colon
  GI50: 2.68 µM
  TGI: 7.72 µM
HL-60(TB) leukemia
  GI50: 1.32 µM
  TGI: 15.3 µM
SK-MEL-28 melanoma
  GI50: 2.86 µM
  TGI: 10.7 µM
HT29 colon
  GI50: 2.89 µM
  TGI: 19.8 µM
COLO 205 colon
  GI50: 2.44 µM
  TGI: 8.51 µM
NCI-H226 lung
  GI50: 1.45 µM
  TGI: 6.04 µM
TK-10 renal
  GI50: 3.64 µM
  TGI: 7.7 µM
MCF7 breast
  GI50: 1.93 µM
  TGI: 7.13 µM
SNB-75 CNS
  GI50: 1.44 µM
  TGI: 5.04 µM
MDA-MB-231 breast
  GI50: 1.57 µM
  TGI: 4.79 µM
SW-620 colon
  GI50: 3.08 µM
  TGI: > 34.5 µM
HS 578T breast
  GI50: 2.11 µM
  TGI: 8.85 µM
HOP-62 NSCLC
  GI50: 1.44 µM
  TGI: 4.7 µM
HOP-92 NSCLC
  GI50: 1.56 µM
  TGI: 4.95 µM
SK-MEL-5 melanoma
  GI50: 1.38 µM
  TGI: 2.93 µM
CCRF-CEM leukemia
  GI50: 2.61 µM
  TGI: > 20.5 µM
SF-539 CNS
  GI50: 2.31 µM
  TGI: 7.15 µM
K-562 leukemia
  GI50: 1.84 µM
RXF 393 renal
  GI50: 2.24 µM
  TGI: 8.01 µM
IGROV1 ovarian
  GI50: 0.0776 µM
  TGI: 15.4 µM
HCT-15 colon
  GI50: 1.95 µM
  TGI: 8.4 µM
SF-268 CNS
  GI50: 3.42 µM
  TGI: 14.4 µM
OVCAR-3 ovarian
  GI50: 1.41 µM
  TGI: 4.1 µM
SF-295 CNS
  GI50: 1.8 µM
  TGI: 4.54 µM
